System: 2,3-DPG, ATP and p50 in blood
Assay: Phase 1 SAD/MAD, healthy volunteers: pharmacodynamics
Format: in vivo, human
Conditions: for Median Percentage Change in 2,3-DPG Levels: HV
Description: This is a first-in-human (FIH), Phase 1 study of Compound 1 that will characterize the safety, PK, and PD of Compound 1 after a single dose and after repeated dosing first in healthy adult volunteers and then in adolescents or adults with sickle cell disease. Initially, a dose range of Compound 1 in single ascending dose (SAD) escalation cohorts will be explored in healthy subjects. Enrollment of healthy subjects into 2-week multiple ascending dose (MAD) escalation cohorts will be initiated once the safety and PK from at least two SAD cohorts is available to inform the doses for the 2-week MAD portion of the study. The MAD cohorts will then run in parallel to the single dose cohorts. A single dose cohort is planned to understand food effects (FE) on the PK of Compound 1. […] Multiple dose studies in SCD subjects will then be initiated upon completion of MAD studies in healthy volunteers. Compound 1 will be administered in 25 mg and 100 mg tablets delivered orally.
In this study, SAD/MAD cohorts are randomized (3 to 1) to receive Compound 1 or placebo (P). Compound 1 was evaluated first in 4 healthy SAD cohorts and 4 healthy MAD (14-day dosing period) cohorts. Based on the safety, and PK/PD profile from HS, Compound 1 is then evaluated in 1 SCD SAD cohort and 2 SCD MAD cohorts. Specifically, based on the safety and pharmacokinetic/pharmacodynamics (PK/PD) profile in healthy volunteer studies, Compound 1 is evaluated in patients (pts) with SCD, first in a single dose (SD or SAD) cohort and then in multiple-dose (MD or MAD) cohorts (14-day and 12-week). Safety assessments include AEs, vital signs, ECGs and laboratory parameters. PK/PD blood sampling was performed on Day 1 (SAD/MAD) and Day 14 (MAD) and up to 72 h after the last dose and at the end-of-study visit. PD parameters included 2,3-DPG, ATP, and p50 in all cohorts with additional PD studies (including oxygen scan) performed only in the SCD cohorts. PD parameters included 2,3-DPG, ATP, p50, RBC deformability with controlled deoxygenation and reoxygenation (Lorrca® oxygen scan) and varying osmolality (Lorrca® osmoscan)). To maintain study blind, pt identifiers were removed when needed.
Four healthy SAD cohorts were evaluated at doses of 200, 400, 700, and 1000 mg, and four healthy MAD cohorts received 200 to 600 mg total daily doses for 14 days at QD or BID dosing (100 mg BID, 200 mg BID, 300 mg BID, and 400 mg QD). In the food effect (FE) cohort, 10 healthy subjects received 200 mg of Compound 1 QD with and without food.
In the SAD cohorts, the subjects' blood 2,3-DPG levels were measured periodically after dosing by a qualified LC-MS/MS method for the quantitation of 2,3-DPG in blood. Decreased 2,3-DPG blood levels were observed 6 hours following a single dose of Compound 1 at all dose levels (earlier timepoints were not collected). Maximum decreases in 2,3-DPG levels generally occurred ˜24 hours after the first dose with the reduction sustained ˜48-72 hr postdose. Table 16 reports the median percentage change in 2,3-DPG blood levels, relative to baseline, measured over time in healthy volunteers after a single dose of Compound 1 (200 mg, 400 mg, 700 mg, or 1000 mg) or placebo. Accordingly, the median reduction in the concentration of 2,3-DPG, relative to baseline, was at least about […] at all dose levels tested 24 hours after administration of the single dose.
In the MAD cohorts, the subjects' blood 2,3-DPG levels were measured periodically after dosing by a qualified LC-MS/MS method for the quantitation of 2,3-DPG in blood. The maximum decrease in 2,3-DPG on Day 14 was 55% from baseline (median). […] Table 18 reports the median percentage change in 2,3-DPG blood levels, relative to baseline, measured over time after the first dose on days 1 and 14 in healthy volunteers who received daily doses of Compound 1 (100 mg BID, 200 mg BID, or 300 mg BID) or placebo for 14 days. […]

[1] = MAD, N = 36, all doses and timepoints
[2] = SAD, N = 24, all doses and timepoints

With `O=C([C@H](CO)c1ccccc1)N1CC2=C(C1)CN(S(=O)(=O)c1cnc3c(c1)OCCO3)C2` (single isomer, unassigned) [Compound 1] the “Median Percentage Change in 2,3-DPG Levels” value (“Median Percentage Change” for short) (300 mg BID, Day 1, 16 h after first daily dose) was −40.7%, the “Median Percentage Change” value (300 mg BID, Day 1, 24 h after first daily dose) was −50.8% and the “Median Percentage Change” value (300 mg BID, Day 14, 0 h after first daily dose) was −59.4%. For the same compound, the “Median Percentage Change” value (300 mg BID, Day 14, 6 h after first daily dose) was −53.0%, the “Median Percentage Change” value (300 mg BID, Day 14, 8 h after first daily dose) was −54.2% and the “Median Percentage Change” value (300 mg BID, Day 14, 12 h after first daily dose) was −55.3%. For the same compound, the “Median Percentage Change” value (300 mg BID, Day 14, 16 h after first daily dose) was −52.4%, the “Median Percentage Change” value (300 mg BID, Day 14, 24 h after first daily dose) was −52.1% and the “Median Percentage Change” value (300 mg BID, Day 14, 48 h after first daily dose) was −44.5%. The “Median Percentage Change” value (300 mg BID, Day 14, 72 h after first daily dose) was −32.9%, the “Median Percentage Change” value (single dose 200 mg, 0 h after dose) was 0.0% and the “Median Percentage Change” value (single dose 200 mg, 6 h after dose) was −18%. The “Median Percentage Change” value (single dose 200 mg, 8 h after dose) was −17%, the “Median Percentage Change” value (single dose 200 mg, 12 h after dose) was −25% and the “Median Percentage Change” value (single dose 200 mg, 16 h after dose) was −33%. The “Median Percentage Change” value (single dose 200 mg, 24 h after dose) was −31%, the “Median Percentage Change” value (single dose 200 mg, 36 h after dose) was −33% and the “Median Percentage Change” value (single dose 200 mg, 48 h after dose) was −29%. For the same compound, the “Median Percentage Change” value (single dose 200 mg, 72 h after dose) was −18%, the “Median Percentage Change” value (single dose 400 mg, 0 h after dose) was 0.0% and the “Median Percentage Change” value (single dose 400 mg, 6 h after dose) was −23%. For the same compound, the “Median Percentage Change” value (single dose 400 mg, 8 h after dose) was −29%, the “Median Percentage Change” value (single dose 400 mg, 12 h after dose) was −40% and the “Median Percentage Change” value (single dose 400 mg, 16 h after dose) was −35%. The “Median Percentage Change” value (single dose 400 mg, 24 h after dose) was −39%, the “Median Percentage Change” value (single dose 400 mg, 36 h after dose) was −38% and the “Median Percentage Change” value (single dose 400 mg, 48 h after dose) was −31%. The “Median Percentage Change” value (single dose 400 mg, 72 h after dose) was −30%, the “Median Percentage Change” value (single dose 700 mg, 0 h after dose) was 0.0% and the “Median Percentage Change” value (single dose 700 mg, 6 h after dose) was −29%. The “Median Percentage Change” value (single dose 700 mg, 8 h after dose) was −28%, the “Median Percentage Change” value (single dose 700 mg, 12 h after dose) was −41% and the “Median Percentage Change” value (single dose 700 mg, 16 h after dose) was −46%. The “Median Percentage Change” value (single dose 700 mg, 24 h after dose) was −49%, the “Median Percentage Change” value (single dose 700 mg, 36 h after dose) was −46% and the “Median Percentage Change” value (single dose 700 mg, 48 h after dose) was −48%. For the same compound, the “Median Percentage Change” value (single dose 700 mg, 72 h after dose) was −33%, the “Median Percentage Change” value (single dose 1000 mg, 0 h after dose) was 0.0% and the “Median Percentage Change” value (single dose 1000 mg, 6 h after dose) was −20%. For the same compound, the “Median Percentage Change” value (single dose 1000 mg, 8 h after dose) was −31%, the “Median Percentage Change” value (single dose 1000 mg, 12 h after dose) was −44% and the “Median Percentage Change” value (single dose 1000 mg, 16 h after dose) was −50%. For the same compound, the “Median Percentage Change” value (single dose 1000 mg, 24 h after dose) was −48%, the “Median Percentage Change” value (single dose 1000 mg, 36 h after dose) was −47% and the “Median Percentage Change” value (single dose 1000 mg, 48 h after dose) was −47%. The “Median Percentage Change” value (single dose 1000 mg, 72 h after dose) was −21%, the “mean maximum reduction in the concentration of 2,3-DPG” value (MAD study) was “at least 50%” and the “mean maximum reduction in the concentration of 2,3-DPG, range” value (MAD study) was 46.1-63.6%. The “Mean Maximum Percent Change from Baseline, 2,3-DPG” value [1] was −56.3%, the “Mean Maximum Percent Change from Baseline, ATP” value [1] was 68.5% and the “mean maximum reduction in the concentration of 2,3-DPG” value (SAD study) was “at least 40%”. For the same compound, the “mean maximum reduction in the concentration of 2,3-DPG, range” value (SAD study) was 35.4-56.1%, the “Mean Maximum Percent Change from Baseline, 2,3-DPG” value [2] was −46.8% and the “Mean Maximum Percent Change from Baseline, ATP” value [2] was 24.4%.
